T1: NR1H3 (Homo sapiens, UniProt Q13133)
T1 construct: amplification of the complete open reading frame from ATG start codon to the stop codon of drugable genes; expressed in transfected cells; host or cells: primary human bone-marrow mesenchymal progenitor cells (MPCs), adenoviral transduction (Ad5-NR1H3 with Ad-hCAR)
T1 sequence (Q13133 1-447): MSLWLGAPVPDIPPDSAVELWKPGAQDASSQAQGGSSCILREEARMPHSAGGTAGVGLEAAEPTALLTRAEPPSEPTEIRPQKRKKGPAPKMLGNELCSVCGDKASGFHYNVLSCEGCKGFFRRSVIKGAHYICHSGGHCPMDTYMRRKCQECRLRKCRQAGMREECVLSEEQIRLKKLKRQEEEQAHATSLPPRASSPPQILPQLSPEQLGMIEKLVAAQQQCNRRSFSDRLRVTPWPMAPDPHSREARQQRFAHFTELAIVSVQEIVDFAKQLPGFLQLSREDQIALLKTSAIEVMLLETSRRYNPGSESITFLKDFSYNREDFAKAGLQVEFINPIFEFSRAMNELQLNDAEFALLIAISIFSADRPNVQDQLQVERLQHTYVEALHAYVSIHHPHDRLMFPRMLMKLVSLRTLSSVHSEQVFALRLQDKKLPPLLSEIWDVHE

T2: NR1H2 (Homo sapiens, UniProt P55055)
T2 construct: amplification of the complete open reading frame from ATG start codon to the stop codon of drugable genes; expressed in transfected cells; host or cells: primary human bone-marrow MPCs, adenoviral transduction (Ad5-NR1H2 with Ad-hCAR)
T2 sequence (P55055 1-460): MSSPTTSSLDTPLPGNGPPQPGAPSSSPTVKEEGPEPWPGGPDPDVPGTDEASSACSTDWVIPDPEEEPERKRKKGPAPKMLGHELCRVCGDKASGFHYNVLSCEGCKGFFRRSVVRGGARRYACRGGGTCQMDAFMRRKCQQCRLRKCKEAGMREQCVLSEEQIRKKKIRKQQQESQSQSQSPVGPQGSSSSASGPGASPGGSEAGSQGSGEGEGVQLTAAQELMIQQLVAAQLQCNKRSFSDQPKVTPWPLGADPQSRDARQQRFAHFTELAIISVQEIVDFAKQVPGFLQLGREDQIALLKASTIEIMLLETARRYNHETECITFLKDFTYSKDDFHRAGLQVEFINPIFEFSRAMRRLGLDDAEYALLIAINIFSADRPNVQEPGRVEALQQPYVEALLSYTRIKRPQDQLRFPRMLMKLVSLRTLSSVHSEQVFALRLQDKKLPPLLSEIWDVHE


Legend:
NR1H3 = target: T1, NR1H3; experiment: Alkaline phosphatase (AP) assay in MPCs infected with Ad-NR1H3 and treated with ligand; type: cell-based; details: MPCs infected with Ad-NR1H3, increasing ligand concentrations, MUP fluorescence readout
Protocol: Cellular AP activity is determined 6 days after the infection (or ligand addition—see below). The principle of the assays is depicted in FIG. 2. Mesenchymal stem cells derived from bone marrow are infected with the FLeXSelect™ cDNA library viruses in the presence of Ad5C15-hCAR or Ad5C20-hCAR virus. Six days after the start of infection or treatment with a ligand, endogenous alkaline phosphatase activity is measured following addition of 4-methylumbelliferyl […] (MUP) substrate.
The stocks of the Ad-control-viruses are generated in 96 well plates (control plate). The 2 μl volume corresponds to a theoretical MOI of 5000. Controls are: P1=Ad-BMP2; P2=Ad-H4-2; P3=Ad-H4-291; N1=Ad-LacZ; N2=Ad-empty; N3=Ad-eGFP. Up-regulation of alkaline phosphatase is read at 6 days post infection (6 dpi): 15 μl 4-Methylumbelliferyl-phosphate (MUP, Sigma) is added to each well, the plates are incubated for 15 min at 37° C. and monitored for AP activity using a fluorescence plate reader (Fluostar, BMG).
These dose-response curves are depicted in FIG. 5. […] MPCs are seeded on day 0 at 1000 cells per well of a 384 well plate and co-infected the next day using AdC51-hCAR (MOI 250) and different MOIs of Ad5-NR1H3 (MOI 12000, 4000, 1333, 444).
After 6 days, medium is removed and replaced with fresh medium containing the same concentrations of the compound GW3965. Readouts of AP activity are performed at several time points after the start of the experiment, typically after 7, 10 and 13 days.
After 6 days, medium is removed and replaced with fresh medium containing the same concentrations of the compound APD.

NR1H2 = target: T2, NR1H2; experiment: Alkaline phosphatase (AP) assay in MPCs infected with Ad-NR1H2 and treated with ligand; type: cell-based; details: MPCs infected with Ad-NR1H2, increasing ligand concentrations, MUP readout after 7, 10 and 13 days
Protocol: (§1) After 6 days, medium is removed and replaced with fresh medium containing the same concentrations of the compound T0901317. Readouts of AP activity are performed at several time points after the start of the experiment, typically after 7, 10 and 13 days. Up-regulation of alkaline phosphatase activity is read as follows: medium is removed from the monolayers, 15 μl MUP is added to each well, the plates are incubated for 15 min at 37° C. and then read for AP activity using a fluorescence plate reader (Fluostar, BMG).
as §1, with “MPCs are seeded on day 0 at 1000 cells per well of a 384 well plate and co-infected the next day using AdC51-hCAR (MOI 250) and different MOIs of Ad5-NR1H2 (MOI 2000, 666). On day 1, 9 concentrations (1.52E-9M, 4.57E-9M, 1.37E-8M, 4.12E-8M, 1.23E-7M, 3.7E-7M, 1.11E-6M, 3.33E-6M, 1E-5M) of the compound GW3965 with fixed vehicle concentration (DMSO at final concentration of 0.161%) are added to the wells. After” for “After”, “GW3965.” for “T0901317.”
as §1, with “APD.” for “T0901317.”

GPR65 = target: T3, GPR65 (Homo sapiens, UniProt Q8IYL9); experiment: Alkaline phosphatase (AP) assay in MPCs infected with Ad-GPR65 and treated with ligand; type: cell-based; details: MPCs infected with Ad-GPR65, increasing ligand concentrations
T3 construct: amplification of the complete open reading frame from ATG start codon to the stop codon of drugable genes; expressed in transfected cells; host or cells: primary human bone-marrow MPCs, adenoviral transduction (Ad-GPR65 with Ad-hCAR)
Protocol: These dose-response curves are depicted in FIG. 5. A dose-response curve for AP activity is generated for MPCs infected with Ad-NR1H3 and treated with T0901317 (FIG. 5A). MPCs are seeded on day 0 at 1000 cells per well of a 384 well plate and co-infected the next day using AdC51-hCAR (MOI 250) and different MOIs of Ad5-NR1H3 (MOI 12000, 4000, 1333, 444). On day 1, 5 concentrations (1E-10M, 1E-9M, 1E-8M, 1E-7M, 1E-6M) of the compound T0901317 (Cayman Chemical, Michigan USA, Cat. No. 71810) with fixed vehicle concentration (the vehicle is DMSO at the concentration is 0.01 %) are added to the wells. After incubation for 6 days at 37° C., 10% CO2 in a humidified incubator, up-regulation of alkaline phosphatase is read: 15 μl MUP is added to each well, the plates are incubated for 15 min at 37° C. and monitored for AP activity using a fluorescence plate reader (Fluostar, BMG).
Dose-response curves for AP activity are generated in a similar way for MPCs infected with Ad-GPR65 and treated with 1-b-D-Galactosylsphingosine (FIG. 5B); for MPCs infected with Ad-AVPR2 and treated with [deamino-Cys1, D-Arg8]-Vasopressin (DDAVP) (FIG. 5C).

MPCs = experiment: Up-regulation of NR5A2 and NR1H3 mRNA levels by osteogenic triggers in MPCs; type: cell-based, human; details: final concentration 0.1 μM, versus vehicle, several time points
Protocol: 100,000 MPCs are seeded in each well of a 6 well plate in 2 ml MPC medium, containing 10% FCS. The next day, after incubation at 37° C., 10% CO2 in a humidified incubator, cells are co-infected with AdC15-hCAR (final MOI of 750) and Ad-BMP2, Ad-RUNX2, Ad-MSX2, Ad-PTHR1/PTHLH or Ad-eGFP or Ad-luciferase as negative controls (final MOIs of 1250 and 2500). Alternatively, cells are treated with dexamethasone (final concentration 0.1 μM), VitD3 (final concentration 0.1 μM) or the vehicle controls (0.1% EtOH or DMSO). Cells are incubated at 37° C., 10% CO2 in a humidified incubator for a further six days unless cells are already harvested for RNA isolation. Virus is removed and replaced by 2 ml fresh OS medium (proprietary medium containing 10% FCS). Over the next 18 days, medium is refreshed 3 times per 2 weeks. Every other time, medium is refreshed half or completely. […] The fold up-regulation of NR5A2 or NR1H3 mRNA compared to negative controls (vehicle for dexamethasone or VitD3 treatment) or Ad-luciferase for Ad-infections) is calculated (FIG. 16).

[1] = tested on: calvarial skull bones (hemicalvaria); experiment: Calvarial skull assay (bone organ culture, weight and histological readout); set-up: species or system CD1 mice; details: histological readout
Protocol: CD1 pups are harvested around birth from CD1 female mice (received from Janvier (Le Genest St Isle, France) when they were 11 days pregnant). Pups are decapitated and the calvarial skull is dissected and split into 2 hemicalvaria. Hemicalvaria are blotted using sterile gauze, weighed and cultured in 24 well plates (MEMalpha or BGJb-Fitton-Jackson medium containing 50 μg/ml L-ascorbic acid (Sigma, A-4034), 5 mM β-glycerophosphate (Sigma, G-9891) and Penicillin-Streptomycin (Invitrogen Cat # 15140-122)). Small molecules (ligands, agonists, antagonists) are tested in at least three-fold at a minimum of 3 concentrations. Each small molecule is added to the medium on day 0 and added again when refreshing the medium (every 2-3 days). Three to 16 days after the start of the experiment, skulls are weighed again after blotting them dry using sterile gauze. The weight difference is calculated, expressed as percent weight change and the mean and standard deviations (SD) are calculated for the triplicate measurements. Data are analyzed using the Student's t-test.
The formation of new osteoid is analyzed histologically as follows: hemicalvaria are fixed in 10% buffered formalin for at least 2 days, decalcified in 10% EDTA overnight, processed through graded alcohols and embedded in paraffin wax. Three to 10 μm sections are prepared of the calvaria and stained with hematoxylin and eosin (H&E). Healthy cells, dead cells, old and new bone, and collagen are identified by their distinctive morphology and colouring observed after H&E staining. The surfaces taken by these are measured stereologically (μm^2 readout) and termed Osteoblast area, Debris area, Native and New bone area, Collagen area and Total area (sum of the previous 5 areas), respectively. In addition, the thickness (μm readout) is measured at 8 positions, evenly spaced over the section.
The histological readout of the calvarial skull assay is developed using known osteogenic agents. Hemicalvaria were treated with recombinant human parathyroid hormone (rhPTH).
T0901317 is added to the culture medium of the dissected hemicalvaria at the day of dissection at several doses (19.5, 78.1 and 313 nM), in fourfold. The concentration of the solvent (vehicle), DMSO, is fixed at a final concentration of 0.05%. The medium, containing T0901317 or vehicle control is refreshed every 2-3 days. Hemicalvaria are harvested 7 days after the initiation of the experiment and subjected to the histological analysis described above.

T3 sequence (Q8IYL9 whole entry): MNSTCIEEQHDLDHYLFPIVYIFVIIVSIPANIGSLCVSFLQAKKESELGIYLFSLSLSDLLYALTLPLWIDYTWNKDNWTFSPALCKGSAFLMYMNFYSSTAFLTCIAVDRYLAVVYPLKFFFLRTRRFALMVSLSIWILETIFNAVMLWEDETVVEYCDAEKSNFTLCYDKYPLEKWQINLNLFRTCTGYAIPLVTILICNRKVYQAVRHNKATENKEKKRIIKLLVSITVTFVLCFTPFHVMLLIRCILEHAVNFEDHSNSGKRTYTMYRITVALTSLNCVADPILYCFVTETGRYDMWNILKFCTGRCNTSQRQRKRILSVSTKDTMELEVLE

up-regulation of endogenous alkaline phosphatase (AP) activity (NR1H3)	up-regulation of alkaline phosphatase (AP) activity (NR1H2)	Molecule	also measured
dose-response relation	dose-response relation	CC(=O)Oc1ccc2c(c1)[C@@]1(C)CCC[C@](C)(C(=O)OC(=O)[C@@]3(C)CCC[C@]4(C)c5cc(OC(C)=O)ccc5CC[C@@H]34)[C@@H]1CC2 [APD, acetyl podocarpic dimer]	–
dose-response relation	dose-response relation	O=C(O)Cc1cccc(OCCCN(Cc2cccc(C(F)(F)F)c2Cl)CC(c2ccccc2)c2ccccc2)c1 [GW3965]	–
–	–	CCCCCCCCCCCCCC=CC(O)C(N)CO[C@@H]1O[C@H](CO)[C@H](O)[C@H](O)[C@H]1O (stereo partly drawn) [1-b-D-Galactosylsphingosine]	up-regulation of endogenous alkaline phosphatase (AP) activity (GPR65): dose-dependently increase
–	–	C=C1CC[C@H](O)C/C1=C/C=C1\CCC[C@]2(C)[C@@H]([C@H](C)CCCC(C)C)CC[C@@H]12 [VitD3]	NR5A2 mRNA levels (MPCs): up-regulated
–	–	PTH: recombinant human parathyroid hormone, known osteogenic agent (protein, UniProt P01270 32-115, looked up, Parathyroid hormone, recombinant human parathyroid hormone, known osteogenic agent) Parathyroid hormone: SVSEIQLMHNLGKHLNSMERVEWLRKKLQDVHNFVALGAPLAPRDAGSQRPRKKEDNVLVESHEKSLGEADKADVNVLTKAKSQ	effect on bone tissue ([1]; 10^−7 M): resorptive effect; effect on bone tissue ([1]; 10^−11 M): induces bone build-up
